Assay results: ChEMBL document CHEMBL4627246, “Pyroglutamide-Based P2X7 Receptor Antagonists Targeting Inflammatory Bowel Disease” (J Med Chem, 2020)

Tested on: SK-MEL-2
Assay: Cytotoxicity against human SK-MEL-2 cells assessed as effect on cell growth at 10 uM incubated for 48 hrs by sulforhodamine B assay
Type: cell-based
Conditions: sk-mel-2, 48 h

SMILES	Activity
CN(C)/C=C1\C[C@@H](C(=O)NCc2ccc(Cl)cc2Cl)N(c2cccs2)C1=O	Non-Toxic
O=C1N[C@H](C(=O)NCc2ccc(Cl)cc2Cl)C/C1=C/NCc1ccc(Cl)cc1Cl	Non-Toxic
O=C(NCC1CCCCC1)[C@@H]1CCC(=O)N1c1ccccc1	Non-Toxic

Tested on: SN12C
Assay: Cytotoxicity against human SN12C cells assessed as effect on cell growth at 10 uM incubated for 48 hrs by sulforhodamine B assay
Type: cell-based
Conditions: not given

SMILES	Activity
CN(C)/C=C1\C[C@@H](C(=O)NCc2ccc(Cl)cc2Cl)N(c2cccs2)C1=O	Non-Toxic
O=C1N[C@H](C(=O)NCc2ccc(Cl)cc2Cl)C/C1=C/NCc1ccc(Cl)cc1Cl	Non-Toxic
O=C(NCC1CCCCC1)[C@@H]1CCC(=O)N1c1ccccc1	Non-Toxic

Tested on: MDA-MB-231
Assay: Cytotoxicity against human MDA-MB-231 cells assessed as effect on cell growth at 10 uM incubated for 48 hrs by sulforhodamine B assay
Type: cell-based
Conditions: mda-mb-231, 48 h

SMILES	Activity
CN(C)/C=C1\C[C@@H](C(=O)NCc2ccc(Cl)cc2Cl)N(c2cccs2)C1=O	Non-Toxic
O=C1N[C@H](C(=O)NCc2ccc(Cl)cc2Cl)C/C1=C/NCc1ccc(Cl)cc1Cl	Non-Toxic
O=C(NCC1CCCCC1)[C@@H]1CCC(=O)N1c1ccccc1	Non-Toxic

Tested on: K562
Assay: Cytotoxicity against human K562 cells assessed as effect on cell growth at 10 uM incubated for 48 hrs by sulforhodamine B assay
Type: cell-based
Conditions: k562, 48 h

SMILES	Activity
CN(C)/C=C1\C[C@@H](C(=O)NCc2ccc(Cl)cc2Cl)N(c2cccs2)C1=O	Non-Toxic
O=C1N[C@H](C(=O)NCc2ccc(Cl)cc2Cl)C/C1=C/NCc1ccc(Cl)cc1Cl	Non-Toxic
O=C(NCC1CCCCC1)[C@@H]1CCC(=O)N1c1ccccc1	Non-Toxic

Tested on: NCI-H226
Assay: Cytotoxicity against human NCI-H226 cells assessed as effect on cell growth at 10 uM incubated for 48 hrs by sulforhodamine B assay
Type: cell-based
Conditions: nci-h226, 48 h

SMILES	Activity
CN(C)/C=C1\C[C@@H](C(=O)NCc2ccc(Cl)cc2Cl)N(c2cccs2)C1=O	Non-Toxic
O=C1N[C@H](C(=O)NCc2ccc(Cl)cc2Cl)C/C1=C/NCc1ccc(Cl)cc1Cl	Non-Toxic
O=C(NCC1CCCCC1)[C@@H]1CCC(=O)N1c1ccccc1	Non-Toxic

Tested on: RXF 393
Assay: Cytotoxicity against human RXF393 cells assessed as effect on cell growth at 10 uM incubated for 48 hrs by sulforhodamine B assay
Type: cell-based
Conditions: rxf 393, 48 h

SMILES	Activity
CN(C)/C=C1\C[C@@H](C(=O)NCc2ccc(Cl)cc2Cl)N(c2cccs2)C1=O	Non-Toxic
O=C1N[C@H](C(=O)NCc2ccc(Cl)cc2Cl)C/C1=C/NCc1ccc(Cl)cc1Cl	Non-Toxic
O=C(NCC1CCCCC1)[C@@H]1CCC(=O)N1c1ccccc1	Non-Toxic

Tested on: MDA-MB-435
Assay: Cytotoxicity against human MDA-MB-435 cells assessed as effect on cell growth at 10 uM incubated for 48 hrs by sulforhodamine B assay
Type: cell-based
Conditions: mda-mb-435, 48 h

SMILES	Activity
CN(C)/C=C1\C[C@@H](C(=O)NCc2ccc(Cl)cc2Cl)N(c2cccs2)C1=O	Non-Toxic
O=C1N[C@H](C(=O)NCc2ccc(Cl)cc2Cl)C/C1=C/NCc1ccc(Cl)cc1Cl	Non-Toxic
O=C(NCC1CCCCC1)[C@@H]1CCC(=O)N1c1ccccc1	Non-Toxic

Tested on: HOP-62
Assay: Cytotoxicity against human HOP62 cells assessed as effect on cell growth at 10 uM incubated for 48 hrs by sulforhodamine B assay
Type: cell-based
Conditions: hop-62, 48 h

SMILES	Activity
CN(C)/C=C1\C[C@@H](C(=O)NCc2ccc(Cl)cc2Cl)N(c2cccs2)C1=O	Non-Toxic
O=C1N[C@H](C(=O)NCc2ccc(Cl)cc2Cl)C/C1=C/NCc1ccc(Cl)cc1Cl	Non-Toxic
O=C(NCC1CCCCC1)[C@@H]1CCC(=O)N1c1ccccc1	Non-Toxic

Tested on: SF-268
Assay: Cytotoxicity against human SF268 cells assessed as effect on cell growth at 10 uM incubated for 48 hrs by sulforhodamine B assay
Type: cell-based
Conditions: sf-268, 48 h

SMILES	Activity
CN(C)/C=C1\C[C@@H](C(=O)NCc2ccc(Cl)cc2Cl)N(c2cccs2)C1=O	Non-Toxic
O=C1N[C@H](C(=O)NCc2ccc(Cl)cc2Cl)C/C1=C/NCc1ccc(Cl)cc1Cl	Non-Toxic
O=C(NCC1CCCCC1)[C@@H]1CCC(=O)N1c1ccccc1	Non-Toxic

Tested on: SK-MEL-28
Assay: Cytotoxicity against human SK-MEL-28 cells assessed as effect on cell growth at 10 uM incubated for 48 hrs by sulforhodamine B assay
Type: cell-based
Conditions: sk-mel-28, 48 h

SMILES	Activity
CN(C)/C=C1\C[C@@H](C(=O)NCc2ccc(Cl)cc2Cl)N(c2cccs2)C1=O	Non-Toxic
O=C1N[C@H](C(=O)NCc2ccc(Cl)cc2Cl)C/C1=C/NCc1ccc(Cl)cc1Cl	Non-Toxic
O=C(NCC1CCCCC1)[C@@H]1CCC(=O)N1c1ccccc1	Non-Toxic

Tested on: OVCAR-4
Assay: Cytotoxicity against human OVCAR4 cells assessed as effect on cell growth at 10 uM incubated for 48 hrs by sulforhodamine B assay
Type: cell-based
Conditions: ovcar-4, 48 h

SMILES	Activity
CN(C)/C=C1\C[C@@H](C(=O)NCc2ccc(Cl)cc2Cl)N(c2cccs2)C1=O	Non-Toxic
O=C1N[C@H](C(=O)NCc2ccc(Cl)cc2Cl)C/C1=C/NCc1ccc(Cl)cc1Cl	Non-Toxic
O=C(NCC1CCCCC1)[C@@H]1CCC(=O)N1c1ccccc1	Non-Toxic

Tested on: UACC-257
Assay: Cytotoxicity against human UACC257 cells assessed as effect on cell growth at 10 uM incubated for 48 hrs by sulforhodamine B assay
Type: cell-based
Conditions: uacc-257, 48 h

SMILES	Activity
CN(C)/C=C1\C[C@@H](C(=O)NCc2ccc(Cl)cc2Cl)N(c2cccs2)C1=O	Non-Toxic
O=C1N[C@H](C(=O)NCc2ccc(Cl)cc2Cl)C/C1=C/NCc1ccc(Cl)cc1Cl	Non-Toxic
O=C(NCC1CCCCC1)[C@@H]1CCC(=O)N1c1ccccc1	Non-Toxic

Tested on: BT-549
Assay: Cytotoxicity against human BT549 cells assessed as effect on cell growth at 10 uM incubated for 48 hrs by sulforhodamine B assay
Type: cell-based
Conditions: bt-549, 48 h

SMILES	Activity
CN(C)/C=C1\C[C@@H](C(=O)NCc2ccc(Cl)cc2Cl)N(c2cccs2)C1=O	Non-Toxic
O=C1N[C@H](C(=O)NCc2ccc(Cl)cc2Cl)C/C1=C/NCc1ccc(Cl)cc1Cl	Non-Toxic
O=C(NCC1CCCCC1)[C@@H]1CCC(=O)N1c1ccccc1	Non-Toxic

Tested on: OVCAR-3
Assay: Cytotoxicity against human OVCAR3 cells assessed as effect on cell growth at 10 uM incubated for 48 hrs by sulforhodamine B assay
Type: cell-based
Conditions: ovcar-3, 48 h

SMILES	Activity
CN(C)/C=C1\C[C@@H](C(=O)NCc2ccc(Cl)cc2Cl)N(c2cccs2)C1=O	Non-Toxic
O=C1N[C@H](C(=O)NCc2ccc(Cl)cc2Cl)C/C1=C/NCc1ccc(Cl)cc1Cl	Non-Toxic
O=C(NCC1CCCCC1)[C@@H]1CCC(=O)N1c1ccccc1	Non-Toxic

Tested on: MCF7
Assay: Cytotoxicity against human MCF7 cells assessed as effect on cell growth at 10 uM incubated for 48 hrs by sulforhodamine B assay
Type: cell-based
Conditions: mcf7, 48 h

SMILES	Activity
CN(C)/C=C1\C[C@@H](C(=O)NCc2ccc(Cl)cc2Cl)N(c2cccs2)C1=O	Non-Toxic
O=C1N[C@H](C(=O)NCc2ccc(Cl)cc2Cl)C/C1=C/NCc1ccc(Cl)cc1Cl	Non-Toxic
O=C(NCC1CCCCC1)[C@@H]1CCC(=O)N1c1ccccc1	Non-Toxic

Tested on: Hs-578T
Assay: Cytotoxicity against human Hs 578T cells assessed as effect on cell growth at 10 uM incubated for 48 hrs by sulforhodamine B assay
Type: cell-based
Conditions: not given

SMILES	Activity
CN(C)/C=C1\C[C@@H](C(=O)NCc2ccc(Cl)cc2Cl)N(c2cccs2)C1=O	Non-Toxic
O=C1N[C@H](C(=O)NCc2ccc(Cl)cc2Cl)C/C1=C/NCc1ccc(Cl)cc1Cl	Non-Toxic
O=C(NCC1CCCCC1)[C@@H]1CCC(=O)N1c1ccccc1	Non-Toxic

Tested on: CAKI-1
Assay: Growth inhibition of human Caki1 cells assessed as growth percentage at 10 uM incubated for 48 hrs by sulforhodamine B assay
Type: cell-based
Conditions: caki-1, 48 h

SMILES	Activity
CN(C)/C=C1\C[C@@H](C(=O)NCc2ccc(Cl)cc2Cl)N(c2cccs2)C1=O	Non-Toxic
O=C1N[C@H](C(=O)NCc2ccc(Cl)cc2Cl)C/C1=C/NCc1ccc(Cl)cc1Cl	Non-Toxic
O=C(NCC1CCCCC1)[C@@H]1CCC(=O)N1c1ccccc1	Non-Toxic

Tested on: CCRF-CEM
Assay: Cytotoxicity against human CCRF-CEM cells assessed as effect on cell growth at 10 uM incubated for 48 hrs by sulforhodamine B assay
Type: cell-based
Conditions: not given

SMILES	Activity
CN(C)/C=C1\C[C@@H](C(=O)NCc2ccc(Cl)cc2Cl)N(c2cccs2)C1=O	Non-Toxic
O=C1N[C@H](C(=O)NCc2ccc(Cl)cc2Cl)C/C1=C/NCc1ccc(Cl)cc1Cl	Non-Toxic
O=C(NCC1CCCCC1)[C@@H]1CCC(=O)N1c1ccccc1	Non-Toxic

Tested on: SK-MEL-5
Assay: Cytotoxicity against human SK-MEL-5 cells assessed as effect on cell growth at 10 uM incubated for 48 hrs by sulforhodamine B assay
Type: cell-based
Conditions: sk-mel-5, 48 h

SMILES	Activity
CN(C)/C=C1\C[C@@H](C(=O)NCc2ccc(Cl)cc2Cl)N(c2cccs2)C1=O	Non-Toxic
O=C1N[C@H](C(=O)NCc2ccc(Cl)cc2Cl)C/C1=C/NCc1ccc(Cl)cc1Cl	Non-Toxic
O=C(NCC1CCCCC1)[C@@H]1CCC(=O)N1c1ccccc1	Non-Toxic

Tested on: LOX IMVI
Assay: Cytotoxicity against human LOXIMVI cells assessed as effect on cell growth at 10 uM incubated for 48 hrs by sulforhodamine B assay
Type: cell-based
Conditions: not given

SMILES	Activity
CN(C)/C=C1\C[C@@H](C(=O)NCc2ccc(Cl)cc2Cl)N(c2cccs2)C1=O	Non-Toxic
O=C1N[C@H](C(=O)NCc2ccc(Cl)cc2Cl)C/C1=C/NCc1ccc(Cl)cc1Cl	Non-Toxic
O=C(NCC1CCCCC1)[C@@H]1CCC(=O)N1c1ccccc1	Non-Toxic
